Measurements reported in US20250163067A1, “NUCLEOBASE-SUBSTITUTED PIPERIDINYL-PYRIDINES AND RELATED COMPOUNDS AND THEIR USE IN TREATING DISEASES AND CONDITIONS” (K36 Therapeutics, Inc., priority 2023, published 2025).

Target: recombinant human NSD2 (Homo sapiens (Human), UniProt O96028)
Assay: NSD2 inhibitory activity, modified RBC HotSpot HMT Assay
Format: biochemical
Conditions: recombinant human NSD2 (amino acids 2-end) 2 nM, chicken oligonucleosomes 0.05 mg/ml, 3H-SAM 1 μM, 1 hour at 30° C
Method: Exemplary compounds were tested for NSD2 inhibitory activity using a modified RBC HotSpot HMT Assay.
A reaction mixture was prepared by adding oligonucleosomes from Chicken (0.05 mg/ml) to freshly prepared reaction buffer containing 50 mM Tris-HCl (pH 8.5), 50 mM NaCl, 5 mM MgCl2, 0.01% Brij35, 1 mM DTT, and 1% DMSO followed by the addition of recombinant human NSD2, (amino acids 2-end) with N-terminal His tag (2 nM; GenBank Accession No. NM 001042424; MW=155.5 kDa; expressed in Sf9 insect cells) and gentle mixing. The test compounds were diluted in DMSO, added to the reaction mixture in nanoliter amounts by using Acoustic Technology (Echo 550, LabCyte Inc. Sunnyvale, CA) and incubated for 20 minutes at room temperature. The reaction was initiated by the addition of S-Adenosyl-L-[methyl-^3H] methionine (^3H-SAM; 1 μM), and the mixture was incubated for 1 hour at 30° C. The reaction mixture was delivered to filter paper and the methylated substrate was quantified by scintillation counting. Data analysis was performed using Excel and GraphPad Prism software for IC50 curve fits. For additional information on the histone methyltransferase assay, see, for example, Horiuchi K Y, et al., “Assay Development for Histone Methyltransferases,” Assay Drug Dev Technol. 2013 May; 11 (4): 227-36.

recombinant human NSD2, sequence (O96028 2-1365 limits assumed): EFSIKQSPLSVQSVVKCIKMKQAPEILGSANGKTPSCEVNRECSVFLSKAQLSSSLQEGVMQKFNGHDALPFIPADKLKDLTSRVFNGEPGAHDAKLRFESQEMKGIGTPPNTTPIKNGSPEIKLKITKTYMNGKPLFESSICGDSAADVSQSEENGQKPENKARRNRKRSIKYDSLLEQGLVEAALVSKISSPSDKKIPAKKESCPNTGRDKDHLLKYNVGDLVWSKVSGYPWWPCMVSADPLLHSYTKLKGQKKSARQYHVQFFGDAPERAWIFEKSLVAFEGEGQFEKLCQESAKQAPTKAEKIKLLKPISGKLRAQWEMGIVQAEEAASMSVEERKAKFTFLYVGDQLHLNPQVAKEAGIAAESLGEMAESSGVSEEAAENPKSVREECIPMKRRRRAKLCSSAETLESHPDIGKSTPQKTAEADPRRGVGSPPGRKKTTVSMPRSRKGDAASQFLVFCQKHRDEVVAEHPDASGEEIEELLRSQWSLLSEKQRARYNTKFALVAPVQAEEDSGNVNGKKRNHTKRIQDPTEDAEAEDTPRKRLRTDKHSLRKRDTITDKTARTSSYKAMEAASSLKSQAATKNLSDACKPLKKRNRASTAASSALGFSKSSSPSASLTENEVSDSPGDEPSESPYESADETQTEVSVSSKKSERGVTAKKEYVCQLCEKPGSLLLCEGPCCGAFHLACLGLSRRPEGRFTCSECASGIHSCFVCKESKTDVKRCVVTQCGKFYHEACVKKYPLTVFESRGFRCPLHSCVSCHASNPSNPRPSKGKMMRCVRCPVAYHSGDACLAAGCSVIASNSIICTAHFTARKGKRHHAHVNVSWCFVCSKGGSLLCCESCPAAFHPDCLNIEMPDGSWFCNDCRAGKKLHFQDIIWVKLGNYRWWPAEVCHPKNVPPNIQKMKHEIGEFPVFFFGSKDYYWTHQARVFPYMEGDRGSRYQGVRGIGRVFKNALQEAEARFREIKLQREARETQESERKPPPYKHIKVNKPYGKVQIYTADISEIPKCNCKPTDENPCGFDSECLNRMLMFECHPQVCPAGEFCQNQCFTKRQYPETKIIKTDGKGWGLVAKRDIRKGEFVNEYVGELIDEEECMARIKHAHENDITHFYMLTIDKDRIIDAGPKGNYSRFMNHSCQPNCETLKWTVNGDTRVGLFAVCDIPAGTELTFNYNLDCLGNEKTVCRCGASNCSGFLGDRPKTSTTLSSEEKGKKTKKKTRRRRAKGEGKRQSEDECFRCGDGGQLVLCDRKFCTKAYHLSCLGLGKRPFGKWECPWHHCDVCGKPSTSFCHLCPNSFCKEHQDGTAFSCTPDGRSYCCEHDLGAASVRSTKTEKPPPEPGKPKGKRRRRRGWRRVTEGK

COc1cc(F)c(-c2cc(Cc3cnc4c(N)nccn34)c(N3CCC[C@](N)([C@H](O)C(F)F)C3)cn2)cc1F [Compound I-4, (S)-1-((R)-3-AMINO-1-(4-((8-AMINOIMIDAZO [1,2-A]PYRAZIN-3-YL)METHYL)-6-(2,5-DIFLUORO-4-METHOXYPHENYL)PYRIDIN-3-YL)PIPERIDIN-3-YL)-2,2-DIFLUOROETHAN-1-OL]
IC50: ≤ 1000 nM

COc1cc(F)c(-c2cc(Cn3cnc4cncnc43)c(N3CCC[C@](N)([C@H](O)C(F)F)C3)cn2)cc1F [IV-1]
IC50: ≤ 1000 nM

COc1cc(F)c(-c2cc(Cn3cnc4ncncc43)c(N3CCC[C@](N)([C@H](O)C(F)F)C3)cn2)cc1F [IV-2]
IC50: > 1000 nM

COc1cc(F)c(-c2cc(CN3CCc4cncnc43)c(N3CCC[C@](N)([C@H](O)C(F)F)C3)cn2)cc1F [IV-3]
IC50: > 1000 nM

COc1cc(F)c(-c2cc(Cn3ccc4cncnc43)c(N3CCC[C@](N)([C@H](O)C(F)F)C3)cn2)cc1F [IV-4]
IC50: > 1000 nM

COc1cc(F)c(-c2cc(Cn3ccc4ncncc43)c(N3CCC[C@](N)([C@H](O)C(F)F)C3)cn2)cc1F [IV-5]
IC50: ≤ 1000 nM

COc1cc(F)c(-c2cc(Cn3cnc4ccccc43)c(N3CCC[C@](N)([C@H](O)C(F)F)C3)cn2)cc1F [IV-6]
IC50: > 1000 nM

COc1cc(F)c(-c2cc(Cn3cnc4nccnc43)c(N3CCC[C@](N)([C@H](O)C(F)F)C3)cn2)cc1F [IV-7]
IC50: > 1000 nM

COc1cc(F)c(-c2cc(Cn3cnc4cnncc43)c(N3CCC[C@](N)([C@H](O)C(F)F)C3)cn2)cc1F [IV-8]
IC50: > 1000 nM

COc1cc(F)c(-c2cc(Cn3ncc4ncncc43)c(N3CCC[C@](N)([C@H](O)C(F)F)C3)cn2)cc1F [IV-9]
IC50: > 1000 nM

COc1cc(F)c(-c2cc(Cn3ncc4cncnc43)c(N3CCC[C@](N)([C@H](O)C(F)F)C3)cn2)cc1F [IV-10]
IC50: > 1000 nM

COc1cc(F)c(-c2cc(CN3Cc4nccnc4C3)c(N3CCC[C@](N)([C@H](O)C(F)F)C3)cn2)cc1F [IV-11]
IC50: > 1000 nM

COc1cc(F)c(-c2cc(Cn3ncc4nccnc43)c(N3CCC[C@](N)([C@H](O)C(F)F)C3)cn2)cc1F [IV-12]
IC50: > 1000 nM

COc1cc(F)c(-c2cc(Cn3ccc4nccnc43)c(N3CCC[C@](N)([C@H](O)C(F)F)C3)cn2)cc1F [IV-13]
IC50: > 1000 nM

COc1cc(F)c(-c2cc(Cn3ccc4ncccc43)c(N3CCC[C@](N)([C@H](O)C(F)F)C3)cn2)cc1F [IV-14]
IC50: > 1000 nM

COc1cc(F)c(-c2cc(Cn3ncc4cnccc43)c(N3CCC[C@](N)([C@H](O)C(F)F)C3)cn2)cc1F [IV-15]
IC50: > 1000 nM

COc1cc(F)c(-c2cc(Cn3cnc4c(O)nc(N)nc43)c(N3CCC[C@](N)([C@H](O)C(F)F)C3)cn2)cc1F [IV-17]
IC50: > 1000 nM

COc1cc(F)c(-c2cc(Cn3ccc(N)nc3=O)c(N3CCC[C@](N)([C@H](O)C(F)F)C3)cn2)cc1F [IV-18]
IC50: > 1000 nM

COc1cc(F)c(-c2cc(CN3CCC(=O)NC3=O)c(N3CCC[C@](N)([C@H](O)C(F)F)C3)cn2)cc1F [IV-19]
IC50: > 1000 nM

COc1cc(F)c(-c2cc(Cn3ccnc3)c(N3CCC[C@](N)([C@H](O)C(F)F)C3)cn2)cc1F [IV-20]
IC50: > 1000 nM

COc1cc(F)c(-c2cc(Cn3ccnn3)c(N3CCC[C@](N)([C@H](O)C(F)F)C3)cn2)cc1F [IV-21]
IC50: > 1000 nM

COc1cc(F)c(-c2cc(CN3CCNC3=O)c(N3CCC[C@](N)([C@H](O)C(F)F)C3)cn2)cc1F [IV-22]
IC50: > 1000 nM

COc1cc(F)c(-c2cc(Cn3ccc4cnccc43)c(N3CCC[C@](N)([C@H](O)C(F)F)C3)cn2)cc1F [IV-23]
IC50: > 1000 nM

COc1cc(F)c(-c2cc(CN3NCc4cnc(N)nc43)c(N3CCC[C@](N)([C@H](O)C(F)F)C3)cn2)cc1F [IV-24]
IC50: > 1000 nM

COc1cc(F)c(-c2cc(CNc3cc4[nH]ccc4cn3)c(N3CCC[C@](N)([C@H](O)C(F)F)C3)cn2)cc1F [IV-28]
IC50: > 1000 nM

COc1cc(F)c(-c2cc(Cn3cnnn3)c(N3CCC[C@](N)([C@H](O)C(F)F)C3)cn2)cc1F [IV-29]
IC50: > 1000 nM

COc1cc(F)c(-c2cc(Cn3cnnc3)c(N3CCC[C@](N)([C@H](O)C(F)F)C3)cn2)cc1F [IV-30]
IC50: > 1000 nM
